Results: PubChem BioAssay (NCI)
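Cells were grown in 96-well plates and exposed to each compound for 48 hours at five concentrations; endpoints were interpolated linearly between bracketing concentrations, or set to the highest concentration if not reached. GI50 = concentration required for 50% inhibition of growth. TGI: concentration producing complete growth inhibition.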

What was measured:
Test in all cases: growth of human tumour cells (NCI), 48 h
SNB-75 CNS = tested on: SNB-75 CNS
HL-60(TB) leukemia = tested on: HL-60(TB) leukemia
K-562 leukemia = tested on: K-562 leukemia
SNB-19 CNS = tested on: SNB-19 CNS
UO-31 renal = tested on: UO-31 renal
NCI-H226 lung = tested on: NCI-H226 lung
IGROV1 ovarian = tested on: IGROV1 ovarian
SF-268 CNS = tested on: SF-268 CNS
HCT-116 colon = tested on: HCT-116 colon
HOP-92 NSCLC = tested on: HOP-92 NSCLC
OVCAR-8 ovarian = tested on: OVCAR-8 ovarian
M14 melanoma = tested on: M14 melanoma
OVCAR-5 ovarian = tested on: OVCAR-5 ovarian
SF-295 CNS = tested on: SF-295 CNS
SR leukemia = tested on: SR leukemia
OVCAR-3 ovarian = tested on: OVCAR-3 ovarian
HOP-62 NSCLC = tested on: HOP-62 NSCLC
NCI-H460 lung = tested on: NCI-H460 lung
786-0 renal = tested on: 786-0 renal
MOLT-4 leukemia = tested on: MOLT-4 leukemia
MDA-MB-435 = tested on: MDA-MB-435
NCI-H23 lung = tested on: NCI-H23 lung
HCT-15 colon = tested on: HCT-15 colon
RXF 393 renal = tested on: RXF 393 renal
NCI/ADR-RES ovarian = tested on: NCI/ADR-RES ovarian
MCF7 breast = tested on: MCF7 breast
RPMI-8226 leukemia = tested on: RPMI-8226 leukemia
MDA-MB-231 breast = tested on: MDA-MB-231 breast
DU-145 prostate = tested on: DU-145 prostate
SK-OV-3 ovarian = tested on: SK-OV-3 ovarian
T-47D breast = tested on: T-47D breast
U251 CNS = tested on: U251 CNS
SN12C renal = tested on: SN12C renal
ACHN renal = tested on: ACHN renal
HCC-2998 colon = tested on: HCC-2998 colon
NCI-H522 lung = tested on: NCI-H522 lung
SK-MEL-5 melanoma = tested on: SK-MEL-5 melanoma
OVCAR-4 ovarian = tested on: OVCAR-4 ovarian
SK-MEL-28 melanoma = tested on: SK-MEL-28 melanoma
HS 578T breast = tested on: HS 578T breast
HT29 colon = tested on: HT29 colon
UACC-62 melanoma = tested on: UACC-62 melanoma
BT-549 breast = tested on: BT-549 breast
UACC-257 melanoma = tested on: UACC-257 melanoma
TK-10 renal = tested on: TK-10 renal
LOX IMVI melanoma = tested on: LOX IMVI melanoma
MALME-3M melanoma = tested on: MALME-3M melanoma
SK-MEL-2 melanoma = tested on: SK-MEL-2 melanoma
KM12 colon = tested on: KM12 colon
SW-620 colon = tested on: SW-620 colon
COLO 205 colon = tested on: COLO 205 colon
SF-539 CNS = tested on: SF-539 CNS

CC(=O)OCC1OC(n2c(-c3ccc(C)cc3)cc(-c3ccco3)c(C#N)c2=O)C(OC(C)=O)C(OC(C)=O)C1OC(C)=O (stereo unspecified)
TGI (SNB-75 CNS): > 100 µM | TGI (HL-60(TB) leukemia): > 100 µM

N#Cc1cnc2ccc(NCc3cnc[nH]3)cc2c1Nc1ccc(F)c(Cl)c1
GI50 (K-562 leukemia): 9.3 µM | TGI (K-562 leukemia): > 100 µM | GI50 (SNB-19 CNS): 27 µM | TGI (SNB-19 CNS): > 100 µM | GI50 (UO-31 renal): 3.52 µM | TGI (UO-31 renal): > 100 µM | GI50 (NCI-H226 lung): > 100 µM | TGI (NCI-H226 lung): > 100 µM | GI50 (IGROV1 ovarian): 2.6 µM | TGI (IGROV1 ovarian): > 100 µM | GI50 (SF-268 CNS): 5.97 µM | TGI (SF-268 CNS): > 100 µM | GI50 (HCT-116 colon): 6.85 µM | TGI (HCT-116 colon): > 100 µM | GI50 (HOP-92 NSCLC): 1.08 µM | TGI (HOP-92 NSCLC): > 100 µM | GI50 (OVCAR-8 ovarian): 4.51 µM | TGI (OVCAR-8 ovarian): > 100 µM | GI50 (M14 melanoma): 14.3 µM | TGI (M14 melanoma): > 100 µM | GI50 (OVCAR-5 ovarian): 18.2 µM | TGI (OVCAR-5 ovarian): > 100 µM | GI50 (SF-295 CNS): 20.1 µM | TGI (SF-295 CNS): > 100 µM | GI50 (SR leukemia): 5.65 µM | TGI (SR leukemia): > 100 µM | GI50 (OVCAR-3 ovarian): 3.38 µM | TGI (OVCAR-3 ovarian): > 100 µM | GI50 (HOP-62 NSCLC): 10.5 µM | TGI (HOP-62 NSCLC): > 100 µM | GI50 (NCI-H460 lung): 10.3 µM | TGI (NCI-H460 lung): > 100 µM | GI50 (SNB-75 CNS): 11.1 µM | TGI (SNB-75 CNS): 95.8 µM | GI50 (786-0 renal): 9.21 µM | TGI (786-0 renal): > 100 µM | GI50 (MOLT-4 leukemia): > 100 µM | TGI (MOLT-4 leukemia): > 100 µM | GI50 (MDA-MB-435): 14.7 µM | TGI (MDA-MB-435): 88.5 µM | GI50 (NCI-H23 lung): > 100 µM | TGI (NCI-H23 lung): > 100 µM | GI50 (HCT-15 colon): > 100 µM | TGI (HCT-15 colon): > 100 µM | GI50 (RXF 393 renal): 7.03 µM | TGI (RXF 393 renal): > 100 µM | GI50 (HL-60(TB) leukemia): 15.2 µM | TGI (HL-60(TB) leukemia): > 100 µM | GI50 (NCI/ADR-RES ovarian): > 100 µM | TGI (NCI/ADR-RES ovarian): > 100 µM | GI50 (MCF7 breast): 20.1 µM | TGI (MCF7 breast): > 100 µM | GI50 (RPMI-8226 leukemia): > 100 µM | TGI (RPMI-8226 leukemia): > 100 µM | GI50 (MDA-MB-231 breast): 17 µM | TGI (MDA-MB-231 breast): > 100 µM | GI50 (DU-145 prostate): 2.27 µM | TGI (DU-145 prostate): > 100 µM | GI50 (SK-OV-3 ovarian): 4.2 µM | TGI (SK-OV-3 ovarian): > 100 µM | GI50 (T-47D breast): 4.68 µM | TGI (T-47D breast): > 100 µM | GI50 (U251 CNS): 8.96 µM | TGI (U251 CNS): > 100 µM | GI50 (SN12C renal): 4.17 µM | TGI (SN12C renal): > 100 µM | GI50 (ACHN renal): 2.88 µM | TGI (ACHN renal): > 100 µM | GI50 (HCC-2998 colon): > 100 µM | TGI (HCC-2998 colon): > 100 µM | GI50 (NCI-H522 lung): 4.6 µM | TGI (NCI-H522 lung): > 100 µM | GI50 (SK-MEL-5 melanoma): 19 µM | TGI (SK-MEL-5 melanoma): > 100 µM | GI50 (OVCAR-4 ovarian): 2.44 µM | TGI (OVCAR-4 ovarian): > 100 µM | GI50 (SK-MEL-28 melanoma): 17.3 µM | TGI (SK-MEL-28 melanoma): 58.4 µM | GI50 (HS 578T breast): 4.79 µM | TGI (HS 578T breast): > 100 µM | GI50 (HT29 colon): > 100 µM | TGI (HT29 colon): > 100 µM | GI50 (UACC-62 melanoma): 13.9 µM | TGI (UACC-62 melanoma): 75 µM | GI50 (BT-549 breast): > 100 µM | TGI (BT-549 breast): > 100 µM | GI50 (UACC-257 melanoma): 86 µM | TGI (UACC-257 melanoma): > 100 µM | GI50 (TK-10 renal): 2.77 µM | TGI (TK-10 renal): 97.2 µM | GI50 (LOX IMVI melanoma): 5.62 µM | TGI (LOX IMVI melanoma): > 100 µM | GI50 (MALME-3M melanoma): 11.9 µM | TGI (MALME-3M melanoma): 36.1 µM | GI50 (SK-MEL-2 melanoma): 6.34 µM | TGI (SK-MEL-2 melanoma): > 100 µM | GI50 (KM12 colon): > 100 µM | TGI (KM12 colon): > 100 µM | GI50 (SW-620 colon): 8.69 µM | TGI (SW-620 colon): > 100 µM | GI50 (COLO 205 colon): > 100 µM | TGI (COLO 205 colon): > 100 µM | GI50 (SF-539 CNS): 14.7 µM | TGI (SF-539 CNS): > 100 µM
